SMILES strings stand for the structures.

This passage reports EC50, inhibition and Emax results from US10195185B2, “3-(1H-imidazo[4,5-C]pyridin-2-yl)-1H-pyrazolo[4,3-B]pyridines and therapeutic uses thereof” (Samumed, LLC, priority 2015, dated 2019).

Holding throughout (type): cell-based
For experiment [1], the system named is Wnt activity (Wnt-responsive human Sp5 promoter, TCF/LEF binding sites) in SW480 colon carcinoma cells. As to the kind of experiment: Wnt activity screening assay: Sp5-Luc luciferase reporter gene in SW480 cells. To be noted: for EC50: 10-point dose-response from 10 μM, incubated overnight; for inhibition at 10 µM: given for EC50 of >10 μM, read-out: percent inhibition at 10 μM. A digest of the protocol:
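Luminescence read-out (BrightGlo) from stable Sp5-Luc SW480 cells, normalized to DMSO-only wells. Cells were treated overnight at 37° C in 1% FBS medium across a 1:3, 10-point series starting at 10 μM. EC50 from variable-slope four-parameter regression; percent inhibition at 10 μM given where EC50 >10 μM.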

Experiment [2] has as its system SW480 colon cancer cells. As to the kind of experiment: Cell viability assay (CellTiter-Blue), four days. As to conditions: Homo sapiens, 96 h; for inhibition at 10 µM: read-out: percent inhibition at 10 μM (given for EC50 of >10 μM); for EC50: CellTiter-Blue cell viability. In a few lines:
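Four-day viability readout in SW480 cells: compound at 0.0045–10 μM (1:3 series), DMSO controls in eight replicates, CellTiter-Blue fluorescence after ~3 h. Values are regression-derived EC50s, or percent inhibition at 10 μM when EC50 exceeds 10 μM.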

In experiment [3] the test system is primary human mesenchymal stem cells (hMSCs). Nature of the experiment: Induction of chondrogenesis in hMSCs (nodule area, Rhodamine B / Nile Red). To be noted: TGF-β3 as positive control; for Emax: read-out: Max. Activity as % TGF-β3 activity; for EC50: concentration required to induce 50% levels of chondrogenesis, read-out: Conc (nM) of 50% TGF-β3 activity. As to the method:
Representative compounds were screened using primary human mesenchymal stem cells (hMSCs) to determine their ability to induce chondrogenesis (process by which cartilage is developed).
Primary human mesenchymal stem cells (hMSCs) were purchased from Lonza (Walkersville, Md.) and expanded in Mesenchymal Stem Cell Growth Media (Lonza). Cells between passage 3 and 6 were used for the experiments.
Each compound was dissolved in DMSO as a 10 mM stock and used to prepare compound source plates. For the 96 well assay, serial dilution (1:3, 6-point dose-response curves from 2700 nM to 10 nM) and compound transfer was performed using the ECHO 550 (Labcyte, Sunnyvale, Calif.) into 96-well clear bottom assay plates (Greiner Bio-One) with appropriate DMSO backfill for a final DMSO concentration of 0.03%. hMSCs were plated at 20,000 cells/well in 250 μL/well Incomplete Chondrogenic Induction Medium (Lonza; DMEM, dexamethasone, ascorbate, insulin-transferrin-selenium [ITS supplement], gentamycin-amphotericin [GA-1000], sodium pyruvate, proline and L-glutamine). TGF-β3 (10 ng/mL) was used as a positive control for differentiation while negative control wells were treated with 75 nL DMSO for normalization and calculating EC50 values. For the 384 well assay, serial dilution (1:3, 8-point dose-response curves from 5000 nM to 2.2 nM) and compound transfer was performed using the ECHO 550 (Labcyte, Sunnyvale, Calif.) into 384-well clear bottom assay plates (Greiner Bio-One) with appropriate DMSO backfill for a final DMSO concentration of 0.03%. hMSCs were plated at 8,000 cells/well in 80 μL/well Incomplete Chondrogenic Induction Medium (Lonza; DMEM, dexamethasone, ascorbate, insulin-transferrin-selenium [ITS supplement], gentamycin-amphotericin [GA-1000], sodium pyruvate, proline and L-glutamine). TGF-β3 (10 ng/mL) was used as a positive control for differentiation while negative control wells were treated with 25 nL DMSO for normalization and calculating EC50 values. Cells were incubated at 37° C. and 5% CO2 for 6 days. To image chondrogenic nodules, the cells were fixed using 4% formaldehyde (Electron Microscopy Sciences), and stained with 2 μg/mL Rhodamine B (Sigma-Aldrich) and 20 μM Nile Red (Sigma-Aldrich) [Johnson K., et. al, A Stem Cell-Based Approach to Cartilage Repair, Science, (2012), 336(6082), 717-721]. The nodules imaged (25 images per well for 96 well plates and 9 images per well for 384 well plates at 10× magnification) by excitation at 531 nm and emission at 625 nm and quantified using the CellInsight CX5 (Thermo Scientific). Area of nodules in each well was normalized to the average of 3 DMSO treated wells on the same plate using Excel (Microsoft Inc.). The normalized averages (fold change over DMSO) of 2 or 3 replicate wells for each compound concentration were calculated. Due to solubility limitations of some of the compounds, curve fitting was incomplete leading to inaccurate EC50 determinations.
Using TGF-β3 as a positive control, the concentration of representative compounds required to induce 50% levels of chondrogenesis is reported. In addition, the maximum activity of each compound and the respective dose that each compound reached maximum chondrogenesis activity is reported.

For `CCC(=O)Nc1cncc(-c2ccc3[nH]nc(-c4nc5c(-c6cccc(F)c6)nccc5[nH]4)c3n2)c1` [Compound 1, N-(5-(3-(4-(3-Fluorophenyl)-1H-imidazo[4,5-c]pyridin-2-yl)-1H-pyrazolo [4,3-b]pyridin-5-yl)pyridin-3-yl)propionamide], in experiment [1], the EC50 was more than 10 µM and the inhibition at 10 µM worked out at 29.8%. For the same compound, in experiment [2], the inhibition at 10 µM is 28% and the EC50 was more than 10 µM. Besides, in experiment [3], the Emax came out at 95% and the EC50 was 5000 nM.

Turning to `Fc1cccc(-c2nccc3[nH]c(-c4n[nH]c5ccc(-c6cncc(CN7CCC(F)(F)C7)c6)nc45)nc23)c1` [Compound 26, 5-(5-((3,3-Difluoropyrrolidin-1-yl)methyl)pyridin-3-yl)-3-(4-(3-fluorophenyl)-1H-imidazo[4,5-c]pyridin-2-yl)-1H-pyrazolo[4,3-b]pyridine], the EC50 in experiment [1] came out at 0.547 µM; in experiment [2], 1.24 µM; in experiment [3], 30 nM. The Emax in experiment [3] worked out at 58%.

Turning to `CC(C)(C)C(=O)Nc1cncc(-c2ccc3[nH]nc(-c4nc5c(-c6ccc(F)cc6)nccc5[nH]4)c3n2)c1` [Compound 36, N-(5-(3-(4-(4-Fluorophenyl)-1H-imidazo[4,5-c]pyridin-2-yl)-1H-pyrazolo [4,3-b]pyridin-5-yl)pyridin-3-yl)pivalamide], the EC50 was determined as 3.35 µM in experiment [1], 3.59 µM in experiment [2] and 10 nM in experiment [3]. The Emax in experiment [3] was found to be 56%.

As to `Fc1ccc(-c2nccc3[nH]c(-c4n[nH]c5ccc(-c6cncc(CN7CCCC7)c6)nc45)nc23)cc1` [Compound 42, 3-(4-(4-Fluorophenyl)-1H-imidazo[4,5-c]pyridin-2-yl)-5-(5-(pyrrolidin-1-ylmethyl)pyridin-3-yl)-1H-pyrazolo[4,3-b]pyridine], in experiment [1], the EC50 is more than 10 µM and the inhibition at 10 µM is 28.2%. Besides, the EC50 in experiment [2] was determined as 9.56 µM. The Emax in experiment [3] is 39%.

For `O=C(Nc1cncc(-c2ccc3[nH]nc(-c4nc5c(-c6ccc(F)cc6)nccc5[nH]4)c3n2)c1)C1CCC1` [Compound 49, N-(5-(3-(4-(4-Fluorophenyl)-1H-imidazo[4,5-c]pyridin-2-yl)-1H-pyrazolo [4,3-b]pyridin-5-yl)pyridin-3-yl)cyclobutanecarboxamide], the EC50 came out at 4.08 µM in experiment [1] and 9.29 µM in experiment [2]. Moreover, the Emax in experiment [3] stood at 45%.

`Fc1ccc(-c2nccc3[nH]c(-c4n[nH]c5ccc(-c6cncnc6)nc45)nc23)cc1` [Compound 55, 3-(4-(4-Fluorophenyl)-1H-imidazo[4,5-c]pyridin-2-yl)-5-(pyrimidin-5-yl)-1H-pyrazolo[4,3-b]pyridine]: the EC50 in experiment [1] was 1.22 µM. Further, in experiment [2], the inhibition at 10 µM was determined as 15.1% and the EC50 is more than 10 µM. For the same compound, in experiment [3], the Emax turned out to be 139% and the EC50 amounted to 900 nM.

As for `Nc1cncc(-c2ccc3[nH]nc(-c4nc5c(-c6ccccc6F)nccc5[nH]4)c3n2)c1` [Compound 59, 5-(3-(4-(2-Fluorophenyl)-1H-imidazo[4,5-c]pyridin-2-yl)-1H-pyrazolo[4,3-b]pyridin-5-yl)pyridin-3-amine], in experiment [1], the EC50 was more than 10 µM and the inhibition at 10 µM worked out at 27.7%. In experiment [2], the inhibition at 10 µM is 0% and the EC50 is more than 10 µM. For the same compound, in experiment [3], the Emax was determined as 108% and the EC50 amounted to 10 nM.

On to `CC(C)C(=O)Nc1cncc(-c2ccc3[nH]nc(-c4nc5c(-c6ccccc6F)nccc5[nH]4)c3n2)c1` [Compound 65, N-(5-(3-(4-(2-fluorophenyl)-1H-imidazo[4,5-c]pyridin-2-yl)-1H-pyrazolo [4,3-b]pyridin-5-yl)pyridin-3-yl)isobutyramide], for which, in experiment [1], the EC50 was more than 10 µM and the inhibition at 10 µM was determined as 2.7%. In experiment [2], the inhibition at 10 µM came out at 8.7% and the EC50 is more than 10 µM. Further, in experiment [3], the Emax was 140% and the EC50 came to 10 nM.

`c1cncc(-c2ccc3[nH]nc(-c4nc5c(-c6cccnc6)nccc5[nH]4)c3n2)c1` [Compound 88, 5-(Pyridin-3-yl)-3-(4-(pyridin-3-yl)-1H-imidazo[4,5-c]pyridin-2-yl)-1H-pyrazolo[4,3-b]pyridine]: the results for the EC50 in experiment [1], in experiment [2] and in experiment [3] were more than 10 µM, more than 10 µM and 100 nM, respectively. Moreover, the inhibition at 10 µM amounted to 34.4% in experiment [1] and 8.5% in experiment [2]. Further, the Emax in experiment [3] was 70%.

With `CC(C)C(=O)Nc1cncc(-c2ccc3[nH]nc(-c4nc5c(-c6cccnc6)nccc5[nH]4)c3n2)c1` [Compound 93, N-(5-(3-(4-(Pyridin-3-yl)-1H-imidazo[4,5-c]pyridin-2-yl)-1H-pyrazolo[4,3-b]pyridin-5-yl)pyridin-3-yl)isobutyramide], the EC50 in experiment [1] and in experiment [2] was more than 10 µM in each case. Also, the inhibition at 10 µM in experiment [1] turned out to be 25.1%; in experiment [2], 5.9%. Moreover, in experiment [3], the Emax is 32%.

On to `c1cc2[nH]c(-c3n[nH]c4ccc(C5CCNCC5)nc34)nc2c(-c2ccc3c(c2)OCO3)n1` [Compound 1108, 3-(4-(Benzo[d][1,3]dioxol-5-yl)-1H-imidazo[4,5-c]pyridin-2-yl)-5-(piperidin-4-yl)-1H-pyrazolo[4,3-b]pyridine], for which, in experiment [1], the EC50 was more than 10 µM and the inhibition at 10 µM is 11%. Further, in experiment [2], the inhibition at 10 µM is 3.8% and the EC50 is more than 10 µM.

For `Cn1cc(-c2ccc3[nH]nc(-c4nc5c(-c6ccc(F)cc6)nccc5[nH]4)c3n2)c(CO)n1` [Compound 1128, (4-(3-(4-(4-Fluorophenyl)-1H-imidazo[4,5-c]pyridin-2-yl)-1H-pyrazolo[4,3-b]pyridin-5-yl)-1-methyl-1H-pyrazol-3-yl)methanol], in experiment [1], the EC50 was more than 10 µM and the inhibition at 10 µM came out at 19.6%. In addition, in experiment [2], the inhibition at 10 µM was 9.1% and the EC50 is more than 10 µM.

Regarding `Cn1cc(-c2ccc3[nH]nc(-c4nc5c(N6CCCCC6)nccc5[nH]4)c3n2)c(CO)n1` [Compound 1133, (1-Methyl-4-(3-(4-(piperidin-1-yl)-1H-imidazo[4,5-c]pyridin-2-yl)-1H-pyrazolo [4,3-b]pyridin-5-yl)-1H-pyrazol-3-yl)methanol], in experiment [1], the EC50 was more than 10 µM and the inhibition at 10 µM came out at 49.6%. Further, in experiment [2], the inhibition at 10 µM stood at 28.2% and the EC50 is more than 10 µM.

Take `Cn1cc(-c2ccc3[nH]nc(-c4nc5c(-c6ccc7c(c6)OCO7)nccc5[nH]4)c3n2)c(CO)n1` [Compound 1151, (4-(3-(4-(Benzo[d][1,3]dioxol-5-yl)-1H-imidazo[4,5-c]pyridin-2-yl)-1H-pyrazolo [4,3-b]pyridin-5-yl)-1-methyl-1H-pyrazol-3-yl)methanol]: the EC50 in experiment [1] and in experiment [2] was more than 10 µM in each case. Besides, the inhibition at 10 µM was 33.9% in experiment [1] and 3.7% in experiment [2].
